Like-named read-outs stand apart in the source and are kept apart here.
Tests used:
TNFα = experiment: Cot Monocyte TNFα Cell Based Assay
Human Cot = Human Cot (Homo sapiens (Human), UniProt P41279); experiment: High Throughput Cot Biochemical Assay; settings: Cot HTRF (TR-FRET) biochemical assay
[1] = Homo sapiens, Monocyte, read-out: EC50 TNF, LPS-stimulated human monocytes, TNFα
[2] = read-out: EC50 TNF, LPS-stimulated human monocytes, TNFα

Human Cot, sequence (P41279 30-397): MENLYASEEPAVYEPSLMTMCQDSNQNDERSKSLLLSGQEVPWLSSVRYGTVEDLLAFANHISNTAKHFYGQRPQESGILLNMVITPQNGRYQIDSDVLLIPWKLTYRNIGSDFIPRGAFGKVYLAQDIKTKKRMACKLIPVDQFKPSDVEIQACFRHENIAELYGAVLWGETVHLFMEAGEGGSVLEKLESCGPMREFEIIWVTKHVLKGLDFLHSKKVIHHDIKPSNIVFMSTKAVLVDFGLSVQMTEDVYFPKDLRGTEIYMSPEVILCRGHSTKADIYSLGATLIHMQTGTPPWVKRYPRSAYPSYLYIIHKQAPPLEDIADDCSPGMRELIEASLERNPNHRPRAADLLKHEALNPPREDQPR

| EC50 (TNFα; [1]) [nM] | IC50 (Human Cot; IC50 HTRF) [nM] | EC50 (TNFα; [2]) [nM] | IC50 (Human Cot; read-out: IC50 HTRF) [nM] | SMILES |
| --- | --- | --- | --- | --- |
| 3530 | 70 |  |  | CC(C)n1cc([C@@H](Nc2cc(Cl)c3ncc(C#N)c(Nc4ccc(F)c(Cl)c4)c3c2)c2ccc3c(c2)CNCC3)nn1 [Example 50, (S)-8-chloro-4-((3-chloro-4-fluorophenyl)amino)-6-(((1-isopropyl-1H-1,2,3-triazol-4-yl)(1,2,3,4-tetrahydroisoquinolin-7-yl)methyl)amino)quinoline-3-carbonitrile] |
| 1560 | 55 |  |  | CC(C)(C)N1CCC(n2cc([C@@H](Nc3cc(Cl)c4ncc(C#N)c(Nc5ccc(F)c(Cl)c5)c4c3)c3ccc4c(c3)NCC4)nn2)CC1 [Example 51, (S)-6-(((1-(1-(tert-butyl)piperidin-4-yl)-1H-1,2,3-triazol-4-yl)(indolin-6-yl)methyl)amino)-8-chloro-4-((3-chloro-4-fluorophenyl)amino)quinoline-3-carbonitrile] |
| 4020 | 81 |  |  | CCN1Cc2ccc([C@H](Nc3cc(Cl)c4ncc(C#N)c(Nc5ccc(F)c(Cl)c5)c4c3)c3c[nH]nn3)cc2C1 [Example 53, (S)-8-chloro-4-((3-chloro-4-fluorophenyl)amino)-6-(((2-ethylisoindolin-5-yl)(1H-1,2,3-triazol-4-yl)methyl)-amino)quinoline-3-carbonitrile] |
| 652 | 11 |  |  | CCN1Cc2cccc([C@H](Nc3cc(Cl)c4ncc(C#N)c(Nc5ccc(F)c(Cl)c5)c4c3)c3c[nH]nn3)c2C1 [Example 54, (S)-8-chloro-4-((3-chloro-4-fluorophenyl)amino)-6-(((2-ethylisoindolin-4-yl)(1H-1,2,3-triazol-4-yl)methyl)amino)quinoline-3-carbonitrile] |
| 10800 | 58 |  |  | N#Cc1cnc2c(Cl)cc(N[C@@H](c3ccc4c(c3)CNC4)c3c[nH]nn3)cc2c1Nc1ccc(F)c(Cl)c1 [Example 55, (S)-8-chloro-4-((3-chloro-4-fluorophenyl)amino)-6-((isoindolin-5-yl(1H-1,2,3-triazol-4-yl)methyl)amino)quinoline-3-carbonitrile] |
| 2520 | 6 |  |  | N#Cc1cnc2c(Cl)cc(N[C@H](c3c[nH]nn3)c3cccc4c3CNC4)cc2c1Nc1ccc(F)c(Cl)c1 [Example 56, (S)-8-chloro-4-((3-chloro-4-fluorophenyl)amino)-6-((isoindolin-4-yl(1H-1,2,3-triazol-4-yl)methyl)amino)quinoline-3-carbonitrile] |
| 5990 | 60 |  |  | CC(C)(C)N1CCC(n2cc([C@@H](Nc3cc(Cl)c4ncc(C#N)c(Nc5ccc(F)c(Cl)c5)c4c3)c3ccc4c(c3)CNC4)nn2)CC1 [Example 57, (S)-6-(((1-(1-(tert-butyl)piperidin-4-yl)-1H-1,2,3-triazol-4-yl)(isoindolin-5-yl)methyl)amino)-8-chloro-4-((3-chloro-4-fluorophenyl)amino)quinoline-3-carbonitrile] |
| 2980 | 72 |  |  | CCN1Cc2ccc([C@H](Nc3cc(Cl)c4ncc(C#N)c(Nc5ccc(F)c(Cl)c5)c4c3)c3cn(C4CCN(C(C)(C)C)CC4)nn3)cc2C1 [Example 58, (S)-6-(((1-(1-(tert-butyl)piperidin-4-yl)-1H-1,2,3-triazol-4-yl)(2-ethylisoindolin-5-yl)methyl)amino)-8-chloro-4-((3-chloro-4-fluorophenyl)amino)quinoline-3-carbonitrile] |
| 892 | 2 |  |  | CC(C)(C)N1CCC(n2cc([C@@H](Nc3cc(Cl)c4ncc(C#N)c(Nc5ccc(F)c(Cl)c5)c4c3)c3cccc4c3CNC4)nn2)CC1 [Example 59, (S)-6-(((1-(1-(tert-butyl)piperidin-4-yl)-1H-1,2,3-triazol-4-yl)(isoindolin-4-yl)methyl)amino)-8-chloro-4-((3-chloro-4-fluorophenyl)amino)quinoline-3-carbonitrile] |
|  |  | 238 | 11 | CC(C)n1cc([C@@H](Nc2cc(Cl)c3ncc(C#N)c(Nc4ccc(F)c(Cl)c4)c3c2)c2ccc3ncsc3c2)nn1 [Example 61, (S)-6-((benzo[d]thiazol-6-yl(1-isopropyl-1H-1,2,3-triazol-4-yl)nielhyl)amino)-8-chloro-4-((3-chloro-4-fluorophenyl)amino)quinoline-3-carbonitrile] |
| 216 | 10 |  |  | CC(C)(C)N1CCC(n2cc([C@@H](Nc3cc(Cl)c4ncc(C#N)c(Nc5ccc(F)c(Cl)c5)c4c3)c3ccc4scnc4c3)nn2)CC1 [Example 62, (S)-6-((benzo[d]thiazol-5-yl(1-(1-(tert-butyl)piperidin-4-yl)-1H-1,2,3-triazol-4-yl)methyl)amino)-8-chloro-4-((3-chloro-4-fluorophenyl)amino)quinoline-3-carbonitrile] |
| 2650 | 42 |  |  | CC(C)(C)N1CCC(n2cc([C@@H](Nc3cc(Cl)c4ncc(C#N)c(Nc5ccc(F)c(Cl)c5)c4c3)c3ccc4sccc4c3)nn2)CC1 [Example 64, (S)-6-((benzo[b]thiophen-5-yl(1-(1-(tert-butyl)piperidin-4-yl)-1H-1,2,3-triazol-4-yl)methyl)amino)-8-chloro-4-((3-chloro-4-fluorophenyl)amino)quinoline-3-carbonitrile] |
| 32 | 1 |  |  | CC(C)(C)CNc1c(C#N)cnc2c(C#N)cc(N[C@H](c3cn(C4(C#N)CC4)nn3)c3cccc4ncsc34)cc12 [Example 67, (S)-6-((benzo[d]thiazol-7-yl(1-(1-cyanocyclopropyl)-1H-1,2,3-triazol-4-yl)methyl)amino)-4-(neopentylamino)quinoline-3,8-dicarbonitrile] |
| 51 | 1 |  |  | N#CCC[C@@H](Nc1c(C#N)cnc2c(Cl)cc(N[C@H](c3cn(C4CC4)nn3)c3cccc4c3CNC4)cc12)c1ccccc1 [Example 68, 8-chloro-4-(((R)-3-cyano-1-phenyl-propyl)amino)-6-(((S)-(1-cyclopropyl-1H-1,2,3-triazol-4-yl)(isoindolin-4-yl)methyl)amino)quinoline-3-carbonitrile] |
| 33 | 2 |  |  | N#CCC[C@@H](Nc1c(C#N)cnc2c(Cl)cc(N[C@H](c3cn(C4CC4)nn3)c3cccc4ncsc34)cc12)c1ccccc1 [Example 69, 6-(((S)-benzo[d]thiazol-7-yl(1-cyclopropyl-1H-1,2,3-triazol-4-yl)methyl)amino)-8-chloro-4-(((R)-3-cyano-1-phenylpropyl)amino)quinoline-3-carbonitrile] |
| 804 | 19 |  |  | CC(C)(C)CNc1c(C#N)cnc2c(Br)cc(N[C@H](c3cn(C4CC4)nn3)c3cccc4nc(N)sc34)cc12 [Example 70, (S)-6-(((2-aminobenzo[d]thiazol-7-yl)(1-cyclopropyl-1H-1,2,3-triazol-4-yl)methyl)amino)-8-bromo-4-(neopentylamino)quinoline-3-carbonitrile] |
| 79 | 2 |  |  | N#CCC[C@@H](Nc1c(C#N)cnc2c(Cl)cc(N[C@@H](c3cccnc3)c3cn(C4CC4)nn3)cc12)c1ccccc1 [Example 75, 8-chloro-4-(((R)-3-cyano-1-phenylpropyl)amino)-6-(((S)-(1-cyclopropyl-1H-1,2,3-triazol-4-yl)(pyridin-3-yl)methyl)amino)quinoline-3-carbonitrile] |
| 154 | 3 |  |  | CN1Cc2cccc([C@H](Nc3cc(C#N)c4ncc(C#N)c(NCC(C)(C)C)c4c3)c3cn(C4CC4)nn3)c2C1=O [Example 77, (S)-6-(((1-cyclopropyl-1H-1,2,3-triazol-4-yl)(2-methyl-3-oxoisoindolin-4-yl)methyl)amino)-4-(neopentylamino)quinoline-3,8-dicarbonitrile] |
| 332 | 3 |  |  | CC(C)(C)CNc1c(C#N)cnc2c(Br)cc(N[C@H](c3cn(C4CC4)nn3)c3cccc4c3C(=O)NC4)cc12 [Example 78, (S)-8-bromo-6-(((1-cyclopropyl-1H-1,2,3-triazol-4-yl)(3-oxoisoindolin-4-yl)methyl)amino)-4-(neopentylamino)quinoline-3-carbonitrile] |
|  |  | > 1000 | 400 | CC(C)(C)CNc1c(C#N)cnc2c(Cl)cc(N[C@@H](c3cn(C4CC4)nn3)c3csc4c3CCN(C3COC3)C4)cc12 [Example 81, (R)-8-chloro-6-(((1-cyclopropyl-1H-1,2,3-triazol-4-yl)(6-(oxctan-3-yl)-4,5,6,7-tetrahydrothieno[2,3-c]pyridin-3-yl)methyl)amino)-4-(neopentylamino)-quinoline-3-carbonitrile] |
|  |  | 151 | 2 | N#CCCC(Nc1c(C#N)cnc2c(Cl)cc(N[C@H](c3cn(C4[C@H]5CN(C6COC6)C[C@@H]45)nn3)c3csc4c3CCN(C3COC3)C4)cc12)c1ccccc1 (stereo partly drawn) [Example 82, 8-chloro-4-((3-cyano-1-phenylpropyl)amino)-6-(((S)-(1-((1R,5S,6r)-3-(oxetan-3-yl)-3-azabicyclo[3.1 0]hexan-6-yl)-1H-1,2,3-triazol-4-yl)(6-(oxetan-3-yl)-4,5,6,7-tetrahydrothieno[2,3-c]pyridin-3-yl)methyl)amino)-quinoline-3-carbonitrile] |
|  |  | 1000 | 942 | N#CCCC(Nc1c(C#N)cnc2c(Cl)cc(N[C@@H](c3cn(C4CC4)nn3)c3csc4c3CCN(C3COC3)C4)cc12)c1ccccc1 (stereo partly shown) [Example 83, 8-chloro-4-((3-cyano-1-phenylpropyl)amino)-6-(((RH 1-cyclopropyl-1H-1,2,3-triazol-4-yl)(6-(oxetan-3-yl)-4,5,6,7-tetrahydrothieno[2,3-c]pyridin-3-yl)methyl)amino)-quinoline-3-carbonitrile] |
| 10 | 1 |  |  | N#CCC[C@@H](Nc1c(C#N)cnc2c(Cl)cc(N[C@H](c3cn(C4CC4)nn3)c3csc4c3CCN(C3COC3)C4)cc12)c1ccccc1 [Example 84, 8-chloro-4-(((R)-3-cyano-1-phenylpropyl)amino)-6-(((S)-(1-cyclopropyl-1H-1,2,3-triazol-4-yl)(6-(oxetan-3-yl)-4,5,6,7-tetrahydrothieno[2,3-c]pyridin-3-yl)methyl)amino)quinoline-3-carbonitrile] |

— patent publication US11066414B2, “Cot modulators and methods of use thereof” (Gilead Sciences, Inc., priority 2015, dated 2021)
